Like-named read-outs stand apart in the source and are kept apart here.
Legend:
JFH1-Rluc virus [1] = assay: microbe, parasite or virus in culture; type: cell-based, hepatitis C virus (isolate JFH1, genotype 2a); details: for relative viral infection / inhibition of viral infection: 50 μM during 2 h infection of Huh-7 cells, luciferase 48 h after infection; for relative viral infection: compared with DMSO; for inhibition of viral infection: EGCG from CALBIOCHEM or EXTRASYNTHESE
JFH1-Rluc virus [2] = assay: Split-up of HCV entry steps (attachment, receptor interaction, endocytosis/fusion), JFH-Luc in Huh-7 cells; details: for step of HCV entry inhibited: entry split up into its three constituent steps, general statement of the description
[3] = tested on: HCVpp expressing envelope proteins E1 and E2 of the HCV virus of genotypes 1a, 1b, 2a, 2b, 3, 4, 5, 6; type: cell-based, hepatitis C virus; details: for relative infection: vs DMSO
HCVcc [4] = assay: Quantitative binding test: HCVcc attachment to Huh-7 cells, HCV RNA by quantitative RT-PCR; type: cell-based, hepatitis C virus; details: 1 hour at 4° C., MOI 10, vs DMSO; for virus attachment to the cell surface: 50 μM
Experimental: HCVcc. For the quantitative “binding” experiments, the HCVcc virus was mass produced and purified by concentration and separation in a gradient of iodixanol. Supernatants of infected cells were precipitated with 8% PEG 6000 at 4° C. overnight and centrifuged for 25 minutes at 10 000 rpm. The pellets were resuspended in 1 mL, of PBS, loaded on a continuous iodixanol gradient (10-40%), and centrifuged at 36 000 rpm for 16 hours at 4° C. Fractions of 500 μL were collected and the titre of each fraction was determined. The most infectious fractions were combined in order to perform the experiments.
Quantitative “Bindinq” Test. The HCVcc virus was contacted with the Huh-7 cells for 1 hour at 4° C. in the presence of EGCG (50 μM), delphinidin chloride (50 μM) or porcine intestinal heparin (500 ug/mL). After 3 washes with PBS, the total RNAs (viral and cellular) were extracted using the NucleoSpin RNA II kit (Macherey-Nagel, Düren, Germany) and the HCV RNA quantified by quantitative RT-PCR (Castelain et al, J Clin Virol 2004). Heparin was used in parallel as a control.
In order to determine whether the step of attachment to the cell surface was inhibited by EGCG, quantitative “binding” (or attachment) tests have been carried out. The action of delphinidin chloride was tested in parallel. Heparin, a known inhibitor of HCV attachment to the cell surface, was used as a positive control. The cells were incubated with HCVcc purified to a multiplicity of infection of 10 for 1 hour at 4° C. in the presence of DMSO, 50 M of EGCG, 50 μM of delphinidin chloride or 500 μg/mL of heparin. The cells were washed 3 times with cold PBS and the total RNA extracted. The amount of virus fixed was determined by quantifying the viral genomic RNA by means of quantitative RT-PCR.

HCVcc [5] = assay: microbe, parasite or virus in culture; type: cell-based
HCV viral replication = assay: Viral replication (results not shown); type: cell-based, hepatitis C virus
yellow fever virus (YFV) = type: cell-based; details: Huh-7 cells, EGCG 50 μM vs DMSO
HCV JFH1 = assay: Successive infections with supernatants of infected cells (passages P0 to P4); details: 50 μM EGCG, passages P0 to P4, 48 h each
Sindbis virus (SINV) = type: cell-based; details: Huh-7 cells, EGCG 50 μM vs DMSO
JFH1 virus = assay: Cell to cell transmission of HCVcc (JFH1) in Huh-7 cells under agarose; type: cell-based, hepatitis C virus; details: EGCG 50 μM in 1% agarose medium, 72 h post-infection; control sites average 45
Experimental: The Huh-7 cells cultured in 24 well plates are infected with HCVcc over a period of 2 hours. The inoculum was eliminated and replaced by DMEM medium supplemented with GLUTAMAX®-1,10% of FCS and 1% low melting point agarose gel (SeaPlaque® Agarose marketed by LONZA®) containing EGCG (50 μM) or an equivalent volume of Dimethyl Sulfoxide (DMSO) as a control. The cells are incubated at 37° C. over a period of 3 days at the end of which the agarose is eliminated and the infection sites are detected using indirect immunofluorescence for HCV E1 protein as previously described.
A second mode of viral infection is the transmission of the virus from cell to cell. […] The agarose prevents infection of cells by the virus secreted into the medium and thus makes it possible to observe the cell to cell transmission of the virus by virtue of the cells being in contact amongst themselves.
At seventy-two hours post-infection, the cells were fixed and infection was detected by immunofluorescence after labelling with an anti-E1 antibody. A step of detection is then carried out with a Cy3 coupled secondary antibody. The nuclei are stained with DAPI staining. The number of cells per infection site was quantified (FIG. 5). In the presence of EGCG the infection sites are much smaller. They contain an average of 3-4 infected cells showing that the virus has not propagated after infecting a cell. […]

[6] = tested on: VSVpp (virus like particles expressing the envelope protein of VSV); type: cell-based, vesicular stomatitis virus
[7] = tested on: bovine viral diarrhoea virus (BVDV); type: cell-based; details: MDBK cells, EGCG 50 μM vs DMSO
[8] = genotypes 1a, 1b, 2a, 2b, 3, 4, 5 and 6, general statement of the description, no concentration

Oc1cc(O)c2c(c1)O[C@H](c1ccc(O)c(O)c1)[C@@H](O)C2 [(+)-catechin, reference compound]
relative viral infection (JFH1-Rluc virus [1]): identical to that observed for DMSO

Oc1cc(O)c2c(c1)O[C@H](c1ccc(O)c(O)c1)[C@H](O)C2 [(−)-epicatechin, reference compound]
relative viral infection (JFH1-Rluc virus [1]): identical to that observed for DMSO

O=C(O[C@@H]1Cc2c(O)cc(O)cc2O[C@@H]1c1ccc(O)c(O)c1)c1cc(O)c(O)c(O)c1 [ECG, (2R,3R)-2-(3,4-Dihydroxyphenyl)-3,4-dihydro-1(2H)-benzopyran-3,5,7-triol 3-(3,4,5-trihydroxybenzoate)]
step of HCV entry inhibited (JFH1-Rluc virus [2]): only the step of attachment is inhibited | inhibitory effect across viral genotypes of HCV [3, 8]: observed in all the viral genotypes of HCV | inhibition of viral infection (JFH1-Rluc virus [1]): about 40%

Oc1cc(O)c2c(c1)O[C@H](c1cc(O)c(O)c(O)c1)[C@H](O)C2 [EGC, (2R,3R)-2-(3,4,5-trihydroxyphenyl) chroman-3,5,7-triol]
step of HCV entry inhibited (JFH1-Rluc virus [2]): only the step of attachment is inhibited | inhibitory effect across viral genotypes of HCV [3, 8]: observed in all the viral genotypes of HCV | inhibition of viral infection (JFH1-Rluc virus [1]): ~80%

O=C(O[C@@H]1Cc2c(O)cc(O)cc2O[C@@H]1c1cc(O)c(O)c(O)c1)c1cc(O)c(O)c(O)c1 [EGCG, (2R,3R)-5,7-dihydroxy-2-(3,4,5-trihydroxyphenyl)-3,4-dihydro-2H-chromen-3-yl 3,4,5-trihydroxybenzoate]
virus attachment to the cell surface (HCVcc [4]): strong decrease | infection (luciferase activity) (JFH1-Rluc virus [2]; 50 μM EGCG during all three steps of viral entry (Sample 5)): significant reduction of infection | infection (luciferase activity) (JFH1-Rluc virus [2]; 50 μM EGCG during the step of attachment, 1 h at 4° C. (Sample 2)): significant reduction of infection | infection (luciferase activity) (JFH1-Rluc virus [2]; 50 μM EGCG during the step of endocytosis or fusion, 1 h at 37° C. (Sample 4)): does not seem to have any effect | infection (luciferase activity) (JFH1-Rluc virus [2]; 50 μM EGCG during the step of interaction with host cell receptors (Sample 3)): does not seem to have any effect | step of HCV entry inhibited (JFH1-Rluc virus [2]): only the step of attachment is inhibited | IC50 (HCVcc [5]; Hepatitis C virus, Huh-7; read-out: IC50 (concentration inhibiting 50% infection)): ~11 µM | viral replication (HCV viral replication): not affected | effect on cell infection (yellow fever virus (YFV)): does not have an inhibitory effect | percentage of cells infected in each passage of supernatant (HCV JFH1): elimination of HCV from the culture supernatant from the third passage onwards and the complete elimination in the fourth passage | effect on cell infection (Sindbis virus (SINV)): does not have an inhibitory effect | number of cells per infection site (average) (JFH1 virus): 3-4 infected cells | effect on the infection by HCVpp of all genotypes tested ([3]; EGCG 50 μM): inhibitory effect | relative infection ([3]; HCVpp genotype 1b, EGCG 50 μM): substantially nil | relative infection ([3]; HCVpp genotype 2a, EGCG 50 μM): substantially nil | relative infection ([3]; HCVpp genotype 2b, EGCG 50 μM): substantially nil | relative infection ([3]; HCVpp genotype 4, EGCG 50 μM): substantially nil | inhibitory effect across viral genotypes of HCV [3, 8]: observed in all the viral genotypes of HCV | decrease of viral infection (factor) (JFH1-Rluc virus [1]; 50 μM EGCG during 2 h infection of Huh-7 cells): greater than 10 | inhibition of viral infection (JFH1-Rluc virus [1]): greater than 95% | IC50 (JFH1-Rluc virus [1]; Hepatitis C virus, Huh-7, read-out: IC50 (viral infection)): 5 µM | effect on viral entry (JFH1-Rluc virus [1]; non infected cells treated with the molecule before or after infection): no effect | inhibitory effect with pretreated virus (JFH1-Rluc virus [1]; virus incubated 45 minutes with 50 μM EGCG before infection): increase in the inhibitory effect | effect on infection by the VSVpp [6]: no effect | relative infection rate [6]: 85% | effect on cell infection [7]: does not have an inhibitory effect

Oc1cc(O)c2cc(O)c(-c3cc(O)c(O)c(O)c3)[o+]c2c1 [delphinidin chloride, 3,3′,4′,5,5′,7-Hexahydroxyflavylium chloride]
virus attachment to the cell surface (HCVcc [4]): strong decrease | step of HCV entry inhibited (JFH1-Rluc virus [2]): only the step of attachment is inhibited | IC50 (HCVcc [5]; Hepatitis C virus, Huh-7, read-out: IC50 (concentration inhibiting 50% infection)): ~3.5 µM | inhibitory effect across viral genotypes of HCV [3]: observed in all the viral genotypes of HCV

heparin [reference compound]
attachment of the virus to the surface of cells (HCVcc [4]; 500 μg/mL, positive control): greatly reduced

From patent publication US20140088184A1 (priority 2011, published 2014)
